Laboratory results taken from PMC10650832, “Natural Phosphodiesterase-4 Inhibitors with Potential Anti-Inflammatory Activities from Millettia dielsiana” (Molecules, 2023).
One block for each compound: values may come before it.

Legend:
[1] = test system: NO production in RAW264.7 cells induced by LPS; parameters: method as in PMID 31470215; details: read-out: IC50 of inhibition of NO production; cited from earlier work
Recombinant PDE4B = target: T1, Recombinant PDE4B (Homo sapiens, UniProt Q07343); test: In vitro PDE4B enzymatic assay (cAMP dynamic 2 kit); format: biochemical; details: average of three determinations ± SEM
T1 construct: purchased Sigma Aldrich Co Ltd
T1 sequence (Q07343 whole entry, species assumed): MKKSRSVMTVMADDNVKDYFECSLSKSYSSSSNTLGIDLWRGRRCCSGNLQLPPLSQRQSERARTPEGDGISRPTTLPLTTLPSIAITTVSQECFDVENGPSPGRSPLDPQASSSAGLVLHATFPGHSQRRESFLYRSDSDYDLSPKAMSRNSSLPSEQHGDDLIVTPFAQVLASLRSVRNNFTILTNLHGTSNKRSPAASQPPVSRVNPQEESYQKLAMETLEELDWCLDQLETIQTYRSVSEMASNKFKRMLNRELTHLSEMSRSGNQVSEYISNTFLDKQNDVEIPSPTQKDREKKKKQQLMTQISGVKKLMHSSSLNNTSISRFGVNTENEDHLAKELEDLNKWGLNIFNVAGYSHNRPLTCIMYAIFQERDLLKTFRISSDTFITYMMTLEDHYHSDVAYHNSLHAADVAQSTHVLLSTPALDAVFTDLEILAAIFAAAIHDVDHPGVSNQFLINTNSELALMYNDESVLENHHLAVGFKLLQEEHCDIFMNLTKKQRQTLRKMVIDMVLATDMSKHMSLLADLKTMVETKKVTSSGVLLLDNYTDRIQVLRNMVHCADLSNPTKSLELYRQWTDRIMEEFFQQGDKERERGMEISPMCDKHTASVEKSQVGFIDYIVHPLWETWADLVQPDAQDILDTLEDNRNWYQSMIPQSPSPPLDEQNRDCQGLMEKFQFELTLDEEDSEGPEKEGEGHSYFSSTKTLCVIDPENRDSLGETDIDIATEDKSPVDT
Description: (§1) Recombinant PDE4B/D was from Sigma Aldrich Co Ltd. A PDE4B/D inhibitors assay was performed using a cAMP dynamic 2 kit. Serial dilutions of isolated compounds with DMSO (100-fold of final concentration) were prepared. Compound solutions were diluted 20-fold with cAMP assay buffer (50 mM Tris, 6 mM MgCl2, pH 7.5). Enzyme solution ([…] of 30 ng/mL or cAMP assay buffer for the control) and […] of isolated compounds (5-fold concentration of final concentration) were added to each well of the 96-well micro assay plate and pre-incubated at room temperature for 10 min. The enzymatic reactions were started by adding […] of cAMP solution (150 nM in cAMP assay buffer) or cAMP assay buffer and incubated at 37 °C for 30 min. The enzymatic reaction was terminated by placing the assay plate on ice. The concentration of cAMP was quantified by measurement of fluorescence intensity using Spectrophotometer Model-SP-2558 (Acton Research, Acton, MA, USA).

Recombinant PDE4D = target: T2, Recombinant PDE4D (Homo sapiens, UniProt Q08499); test: In vitro PDE4D enzymatic assay (cAMP dynamic 2 kit); format: biochemical; details: average of three determinations ± SEM
T2 construct: purchased Sigma Aldrich Co Ltd
T2 sequence (Q08499 whole entry, species assumed): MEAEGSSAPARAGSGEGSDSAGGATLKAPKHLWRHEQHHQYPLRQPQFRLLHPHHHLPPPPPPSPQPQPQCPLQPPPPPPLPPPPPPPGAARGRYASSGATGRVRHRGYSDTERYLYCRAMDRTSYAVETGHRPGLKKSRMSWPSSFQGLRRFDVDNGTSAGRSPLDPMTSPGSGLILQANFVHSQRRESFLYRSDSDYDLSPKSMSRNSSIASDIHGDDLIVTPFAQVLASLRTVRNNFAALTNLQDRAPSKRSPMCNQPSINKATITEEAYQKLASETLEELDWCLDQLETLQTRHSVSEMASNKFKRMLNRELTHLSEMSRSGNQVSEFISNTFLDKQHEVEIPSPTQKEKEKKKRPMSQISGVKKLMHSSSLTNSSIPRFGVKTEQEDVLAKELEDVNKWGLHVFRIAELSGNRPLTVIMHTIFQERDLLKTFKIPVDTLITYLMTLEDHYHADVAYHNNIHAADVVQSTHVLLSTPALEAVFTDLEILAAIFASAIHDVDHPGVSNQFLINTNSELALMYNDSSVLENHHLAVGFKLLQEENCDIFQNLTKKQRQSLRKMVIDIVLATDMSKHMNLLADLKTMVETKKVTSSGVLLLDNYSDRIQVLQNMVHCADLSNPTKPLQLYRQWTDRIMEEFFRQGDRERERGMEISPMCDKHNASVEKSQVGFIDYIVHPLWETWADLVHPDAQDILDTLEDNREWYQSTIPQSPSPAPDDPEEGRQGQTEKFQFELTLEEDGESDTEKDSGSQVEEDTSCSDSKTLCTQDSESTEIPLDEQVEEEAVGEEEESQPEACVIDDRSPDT
Description: as §1

NO production = test system: NO production; parameters: method as in PMID 22902267; details: read-out: IC50 of inhibition of NO production; cited from earlier work
[2] = test system: NO production on RAW264.7 macrophages; test: Inhibition of NO production in LPS-stimulated RAW264.7 cells (Griess); format: cell-based, murine; details: highest concentration 50 µM
Description: Cell RAW264.7 (ATCC, Manassas, VA, USA) was cultured for 48 h in DMEM (Dulbecco's Modified Eagle Medium) medium at 37 °C, 5% CO2, and 10% for fetal bovine serum (FBS). Then, the cell fluid was transferred to 96 wells with a density of 2.5 × 10^5 cells/well. Cells were stimulated with 2 μL lipopolysaccharide (LPS 0.1 mg/mL) for 24 h and supplemented with different concentrations of drugs/reagents. Cardamonin is used as a control (+) and DMSO as a control (-). The suspension of the cell was incubated with Griess reagent, NaNO2 at different concentrations to build the calibration curve. Measure the reaction response at λ = 570 nm. The inhibition rate of NO (%) production is determined by the formula: %UC = ([XTB]sample - [[…]) × 100 In which [XTB] is the average NO concentration calculated based on the standard NaNO2. […] Formazan crystalline metabolites are dissolved in dimethyl sulfoxide (DMSO, Sigma-Aldrich, Saint Louis, MO, USA) and measured optical density at λ = 540/720 nm on Infinite F50 device (Tecan, Männedorf, Switzerland).

Compound: COc1ccc([C@H]2COc3cc(O)ccc3C2)c(O)c1 [D9, (3S)-Vestitol]
IC50 [1]: 16 µM

IC50 of inhibition of PDE4B (Recombinant PDE4B): did not show activity | IC50 of inhibition of PDE4D (Recombinant PDE4D): did not show activity
Compound: C[C@H]1[C@H](C)CC[C@]2(C(=O)O)CC[C@]3(C)C(=CC[C@@H]4[C@@]5(C)CC[C@H](OC(=O)/C=C/c6ccc(O)cc6)C(C)(C)[C@@H]5CC[C@]43C)[C@H]12 (relative stereo) [D15, trans-3-O-p-hydroxycinnamoyl ursolic acid]

Compound: COc1cc(OC)c(-c2coc3c4c(c(OC)cc3c2=O)OC(C)(C)C=C4)cc1OC [D30, Millesianin C]
IC50 (NO production): 1.37 µM

IC50 (Recombinant PDE4B; read-out: IC50 of inhibition of PDE4B): 6.56 ± 0.7 µM | IC50 (Recombinant PDE4D; read-out: IC50 of inhibition of PDE4D): 11.7 ± 1.3 µM | IC50 [2]: 5.4 ± 0.9 µM
Compound: 5,7,4′-trihydroxyisoflavone 7-O-β-D-apiofuranosyl-(1→6)-β-D-glucopyranoside [D50]

Compound: Oc1ccc([C@H]2CCc3ccc(O)cc3O2)cc1 [D10, Tupichinol C]
IC50 [1]: 38.4 µM

Compound: O=C(/C=C/c1ccc(O)cc1)c1ccc(O)cc1O [D4, Isoliquiritigenin]
IC50 [1]: 31.2 µM
